Key:
Format in all cases: in vivo, Scid CB-17 mice
KG1a tumors (AML) = experiment: Antitumor activity in mice bearing KG1a tumors (AML)
Text: (§1) Scid CB-17 mice (supplied by Charles River, Lyon, France) are used. At the time of the randomization, the animals have an average weight of 20-22 g and are aged from 6 to 9 weeks.
(§2) The day before the first administration of a compound, the animals bearing tumors are classified into several groups. Only animals bearing two tumors which are palpable or of determined weight are selected and distributed at random into the treated groups and control groups. Each group is made up of 5 to 10 mice. At the start of the study, each cage is labeled with a card indicating the day of implantation of the tumour, the type of tumour, the compound tested and the mode of administration.
(§3) The implantation of the tumors is effected as follows: after removal of the tumour from the donor mouse, the tumour is cut up into fragments 2 to 3 mm in diameter, placed in a saline phosphate buffer, and implanted bilaterally with an adapted trocar.
(§4) The volume of the tumors and its conversion into weight is estimated according to the formula: weight: (in mg)=(a×b^2)/2, where a and b are respectively the length and the width of the tumour (mm). The tumors are measured twice a week with calipers. In the following tables, P indicates the weight of the tumors at the start of treatment.
(§5) T is the median time in days for reaching a defined value (e.g. 1000 mg) in the treated group and C is the median time in days for reaching this same value in the control group. A value of log10 of the cells killed>0.7 is indicative of antitumor activity of the molecule. […] The median weight of the tumors of each treated group is then determined.
IV/IP is understood to mean administration by the intravenous route followed by an intraperitoneal route; here the transition is effected between day 15 and day 16. IV/oral is understood to mean administration by the intravenous route followed by an oral route; here the transition is effected between day 30 and day 31. […] On day 31, the compound is administered by the oral route until day 44.

CMLT1 tumours (CML) = experiment: Antitumor activity in mice bearing CMLT1 tumours (CML); conditions: 20 mg/kg/injection IV/IP, days 3-7/10-14, 17-21, total dose 300 mg/kg
Text: as §1, §2, §3, §4
(§6) Two parameters for estimation of antitumor activity are used: log10 of the cells killed (Log cell kill) and T/C. • Calculation of log10 of the cells killed=(T−C)/3.32×Td, where (T−C) is the delay in tumour growth and Td the volume (and weight) doubling time of the tumour (expressed in days). […] A value of log10 of the cells killed >2.8 is indicative of a very high antitumor activity of the molecule (J Liang et al, Invest New Drugs 2005; 23(3):213-24). • Calculation of T/C: the treated groups and the control groups are evaluated when the tumors of the control group reach approximately 1000 mg (median value of the group). The median weight of the tumors of each treated group is then determined. […]

CTV1 tumours (AML) = experiment: Antitumor activity in mice bearing CTV1 tumours (AML); conditions: 25 mg/kg/injection IV/IP, days 17-23, 25-26/28-32, total dose 350 mg/kg, P 100 mg
Text: as §1
as §2, with “administration. […]” for “administration.”
(§7) The volume of the tumors and its conversion into weight is estimated according to the formula: weight: (in mg)=(a×b^2)/2, where a and b are respectively the length and the width of the tumour (mm). The tumors are measured twice a week with calipers. […]
Two parameters for estimation of antitumor activity are used: log10 of the cells killed (Log cell kill) and T/C. • Calculation of log10 of the cells killed=(T−C)/3.32×Td, where (T−C) is the delay in tumour growth and Td the volume (and weight) doubling time of the tumour (expressed in days). […] The median weight of the tumors of each treated group is then determined. […]

EOL-1 tumours (AML) = experiment: Antitumor activity in mice bearing EOL-1 tumours (AML); conditions: days 8-10, 12-17, 19, total dose 300 mg/kg, P 133-146 mg
Text: as §1
as §2, with “administration. […]” for “administration.”
as §7
T is the median time in days for reaching a defined value (e.g. 1000 mg) in the treated group and C is the median time in days for reaching this same value in the control group. […] The median weight of the tumors of each treated group is then determined.

KG1 tumours (AML) = experiment: Antitumor activity in mice bearing KG1 tumours (AML)
Text: as §1, §2, §3, §4
Two parameters for estimation of antitumor activity are used: log10 of the cells killed (Log cell kill) and T/C. • Calculation of log10 of the cells killed=(T−C)/3.32×Td, where (T−C) is the delay in tumour growth and Td the volume (and weight) doubling time of the tumour (expressed in days). T is the median time in days for reaching a defined value (e.g. 1000 mg) in the treated group and C is the median time in days for reaching this same value in the control group. A value of log10 of the cells killed>0.7 is indicative of antitumor activity of the molecule. A value of log10 of the cells killed >2.8 is indicative of a very high antitumor activity of the molecule (J Liang et al, Invest New Drugs 2005; 23(3):213-24). • Calculation of T/C: the treated groups and the control groups are evaluated when the tumors of the control group reach approximately 1000 mg (median value of the group). The median weight of the tumors of each treated group is then determined. The T/C value ((weight of the tumors of the treated groups/weight of the tumors of the control groups)×100) in percent is an indication of the antitumor efficacy: a T/C value less than or equal to 42% is indicative of anti-tumour activity according to the American National Cancer Institute (NCI). A T/C value less than 10% is representative of very high anti-tumour activity. • The number of mice no longer displaying tumors a long time after the last administration (TFS=tumour-free survival), and considered as cured, can also constitute a parameter of activity of the molecule. • Evaluation of the toxicity of the compound tested: a weight loss greater than or equal to 20% or the appearance of any lethality in connection with the compound is considered as an excessively toxic treatment. As examples, the results obtained with the compound N-[2-(2,1,3-benzothiadiazol-5-ylamino)-6-(2,6-dichlorophenyl)pyrido[2,3-d]pyrimidin-7-yl]-N′-(1,1-dimethyl-ethyl)-urea are given in the following Tables 1 to 7.
(§8) IV is understood to mean administration by the intravenous route.
The cell line KG-1 (AML) is described by Koeffler et al., Science 200: 1153-1154 (1978), and supplied by DSMZ ACC No. 14.

Kasumi1 tumours (AML) = experiment: Antitumor activity in mice bearing Kasumi1 tumours (AML); conditions: days 25-31, 33, 34, P 178 mg
Text: as §1, §2, §3, §4, §5, §8

K562 tumours (CML) = experiment: Antitumor activity in mice bearing K562 tumours (CML); conditions: 25 mg/kg/injection IV/IP, days 4-11/12-25, total dose 550 mg/kg
Text: as §1, §2, §3, §4, §6

[1] = 17 mg/kg/injection IV, days 19-38, total dose 255 mg/kg, P 127-130 mg

CC(C)(C)NC(=O)Nc1nc2nc(Nc3ccc4nsnc4c3)ncc2cc1-c1c(Cl)cccc1Cl [N-[2-(2,1,3-benzothiadiazol-5-ylamino)-6-(2,6-dichlorophenyl)pyrido[2,3-d]pyrimidin-7-yl]-N′-(1,1-dimethylethyl)-urea]
T/C at 22 days (KG1a tumors (AML); 17 mg/kg/injection IV/IP, days 5-13, 15/16, 18-20, 22, 24-26, 29, 31, total dose 340 mg/kg, P 91-98 mg, DMSO 5% Tween80 10% H2O 85%): 0%
Log10 cells killed (KG1a tumors (AML); 17 mg/kg/injection IV/IP, days 5-31, total dose 340 mg/kg, P 91-98 mg, DMSO 5% Tween80 10% H2O 85%): >>6
Log10 cells killed (KG1a tumors (AML); 25 mg/kg IV days 22-30 then 40 x 2 mg/kg oral days 31-44, total dose 225/1120 mg/kg, P 1000 mg, DMSO 5% Tween80 10% H2O 85%): >>6
Log10 cells killed (KG1a tumors (AML); 40 x 2 mg/kg (2 administrations per treatment day) oral, days 15-44, total dose 2400 mg/kg, P 147 mg): 3.0
T/C at 22 days (KG1a tumors (AML); 40 x 2 mg/kg (2 administrations per treatment day) oral, days 15-44, total dose 2400 mg/kg, P 147 mg, DMSO 5% Tween80 10% H2O 85%): 14.9%
tumour weight at the end of second treatment period (tumors no longer measurable) (KG1a tumors (AML); after IV days 22-30 (25 mg/kg) then oral route day 31 until day 44, P 1000 mg): < 63 mg
TFS (tumour-free survival) (KG1a tumors (AML); on day 120, 17 mg/kg/injection IV/IP, days 5-31, total dose 340 mg/kg, P 91-98 mg): 80% on
reduction in the tumour weight (KG1a tumors (AML); tumors at very advanced stage (1000 mg), IV route days 22 to 30 at 25 mg/kg): 80%
Log10 cells killed (CMLT1 tumours (CML); P palpable ~30 mg): 1.5
T/C at 22 days (CMLT1 tumours (CML); P palpable ~30 mg, DMSO 5% Tween80 10% H2O 85%): 1%
TFS (tumour-free survival) (CMLT1 tumours (CML); on day 42): (50%
Log10 cells killed (CTV1 tumours (AML)): 1.7
T/C at 25 days (CTV1 tumours (AML); PEG400 22% Solutol 5% G5 73%): 1.6%
T/C at 14 days (EOL-1 tumours (AML); 15 x 2 mg/kg (2 administrations per treatment day) IP, PEG400 22% Solutol 5% G5 73%): 5.7%
Log10 cells killed (EOL-1 tumours (AML); 15 x 2 mg/kg IP): 3.1
T/C at 28 days (KG1 tumours (AML); 17 mg/kg/injection IV, days 19-28, 30, 32, 34, 36, 38, total dose 255 mg/kg, P 127-130 mg, DMSO 5% Tween80 10% H2O 85%): 0%
Log10 cells killed (KG1 tumours (AML); [1]): >6
TFS (tumour-free survival) (KG1 tumours (AML); [1]): (100%)
T/C at 28 days (KG1 tumours (AML); 40 x 2 mg/kg (2 administrations per treatment day) oral, days 18-24, 26, 28, 30, 32, 34, 36, 38, 40, total dose 1200 mg/kg, P 130-132 mg, Labrasol 21% Solutol 5% HCl 0.001N 74%): 0%
Log10 cells killed (KG1 tumours (AML); 40 x 2 mg/kg oral, days 18-40, total dose 1200 mg/kg, P 130-132 mg): 4.3
T/C at 28 days (Kasumi1 tumours (AML); 15 x 2 mg/kg (two administrations per treatment day) IV, total dose 255 mg/kg, PEG400 22% Solutol 5% G5 73%): 20%
Log10 cells killed (Kasumi1 tumours (AML); 15 x 2 mg/kg IV, total dose 255 mg/kg): 3
T/C at 28 days (Kasumi1 tumours (AML); 40 x 2 mg/kg (two administrations per treatment day) oral, total dose 680 mg/kg, Labrasol 21% Solutol 5% HCl 0.001N 74%): 17.5%
Log10 cells killed (Kasumi1 tumours (AML); 40 x 2 mg/kg oral, total dose 680 mg/kg): 2.4
Log10 cells killed (K562 tumours (CML); P 63-80 mg): 4.2
T/C at 28 days (K562 tumours (CML); P 63-80 mg, DMSO 5% Tween80 10% H2O 85%): 0%
TFS (tumour-free survival) (K562 tumours (CML); on day 130): (43%

From patent US8236811B2, “Therapeutic use for treating of leukemia” (Sanofi, priority 2006, dated 2012)
